Assay [1] addresses T1, EcAGPase (Escherichia coli, UniProt P0A6V1). In words: Influence of Fru-1,6-P2 concentration on activity of EcAGPase. On the set-up: His6; made in house; host or cells: E. coli BL21 (DE3), vector pET22b. Conditions: for EcAGPase activity: 3 mM ADP-Glc, 3 mM PPi, pH 8, 37° C. Type of assay: biochemical, E. coli. As to the method: Fru-1,6-P2 was used as an activator for EcAGPase. It is Fru-1,6-P2 a relatively expensive compound and its use in the EcAGPase reaction should be reduced as much as possible. Therefore, the activity of EcAGPase was investigated for different Fru-1,6-P2 concentrations to determine a minimum concentration of the activator.
The experiment included 3.9 μg/mL EcAGPase, 3 mM ADP-Glc, 3 mM PPi, 10 mM MgCl2 and Fru-1,6-P2 at concentrations ranging from 0.1 mM to 1 mM, as well as a control reaction without Fru-1,6-P2.

In assay [2] the target is T1, EcAGPase. In words: Effect of Glc-1-P on ATP synthesis activity of EcAGPase. Type of assay: biochemical, E. coli. More on the design: His6; made in house; host or cells: E. coli BL21 (DE3), vector pET22b. Conditions: 3 mM ADP-Glc, 3 mM PPi. The text has this: The EcAGPase prefers the ADP-Glc synthesis. Thus, the accumulation of Glc-1-P negatively affects the reaction equilibrium for ATP synthesis. Therefore, the effect of Glc-1-P on the ATP synthesis activity of EcAGPase was investigated.

Assay [3] deals with T1, EcAGPase. Conditions: 2.5 mM ADP-Glc, 1 mM Fru-1,6-P2, pH 8, 37° C. As to the method: The influence of PPi concentrations on the ATP synthesis activity of the EcAGPase used was investigated.
The experiment included 4.35 μg/mL EcAGPase, 2.5 mM ADP-Glc, 10 mM MgCl2, 1 mM Fru-1,6-P2 and PPi, at concentrations ranging from 0.75 mM to 10 mM, and a control reaction without PPi. ATP synthesis was performed in 600 μL of 100 mM HEPES buffer, pH 8 at 37° C. for 12 min. The synthesis was stopped at the respective measurement points with 28 mM SDS (final concentration 7 mM) and the analysis of the nucleotides (ADP-Glc, AMP, ADP, ATP) was performed by multiplex capillary electrophoresis (internal standards (final concentrations): 1 mM para-aminobenzoic acid and 1 mM 4-aminophthalic acid) and the analytes were detected at 254 nm.

The structures appear in SMILES notation.

In general, IC50 refers to the point on the concentration scale where inhibition reaches its midpoint. Higher therefore signals weaker potency. By residual activity is commonly meant the share of the control activity or signal that is left under treatment. High values mean a small loss of activity, low ones a large loss of activity.

T1 sequence (P0A6V1 whole entry): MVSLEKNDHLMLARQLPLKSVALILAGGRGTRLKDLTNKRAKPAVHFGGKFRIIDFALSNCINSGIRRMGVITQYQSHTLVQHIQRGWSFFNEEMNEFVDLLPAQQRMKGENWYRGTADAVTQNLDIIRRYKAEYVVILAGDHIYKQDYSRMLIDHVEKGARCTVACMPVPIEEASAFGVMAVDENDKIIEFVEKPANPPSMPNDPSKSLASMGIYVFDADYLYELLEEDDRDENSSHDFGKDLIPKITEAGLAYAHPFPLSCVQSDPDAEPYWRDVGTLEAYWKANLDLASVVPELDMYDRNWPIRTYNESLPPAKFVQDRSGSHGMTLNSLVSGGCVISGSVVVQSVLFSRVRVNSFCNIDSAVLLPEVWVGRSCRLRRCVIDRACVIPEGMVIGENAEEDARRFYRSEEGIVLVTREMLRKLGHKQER

As for `O=C(COP(=O)(O)O)[C@@H](O)[C@H](O)[C@H](O)COP(=O)(O)O` [Fru-1,6-P2, fructose-1,6-bisphosphate], the EcAGPase activity at EcAGPase [1] (0.25 mM Fru-1,6-P2) is 20 U/mg. Moreover, at EcAGPase [1] (0.5 mM Fru-1,6-P2), the “EcAGPase activity, fold higher than without activator” value stood at 12 fold and the EcAGPase activity was found to be 60 U/mg.

For `O=P(O)(O)O[C@H]1O[C@H](CO)[C@@H](O)[C@H](O)[C@H]1O` [Glc-1-P, glucose-1-phosphate], the “activity of the enzyme relative to activity without addition of Glc-1-P” value at EcAGPase [2] (1 mM Glc-1-P, 0.5 mM Fru-1,6-P2) worked out at 71%. At EcAGPase [2] (0.5 mM Fru-1,6-P2, pH 8, 37° C.), this compound displayed an IC50 of 1780 µM. This compound also yielded a residual activity on EcAGPase [2] (5 mM Glc-1-P, 0.5 mM Fru-1,6-P2) of 27%.

With `O=P(O)(O)OP(=O)(O)O` [PPi, inorganic pyrophosphate], on EcAGPase [3], the “PPi concentration at which EcAGPase shows a reduction in specific activity” value is reported as “above 3 mM”. Also, the “specific activity of EcAGPase” value on EcAGPase [3] (7 mM PPi) is on record as 0.6 U/mg.

The values are drawn from patent US20230175029A1, “ENZYME CASCADES BASED ON SUCROSE SYNTHASE AND PYROPHO[…] CONVERSION OF ADP TO ATP” (RHEINISCH-WE[…]-NISCHE HOCHSCHULE (RWTH) AACHEN, priority 2020, published 2023).
